The text below walks through data of US9927437B2, “Treating neurodegenerative disease” (THE BRIGHAM AND WOMEN'S HOSPITAL, INC., priority 2013, dated 2018).

For one series, the system named is B4GALT5/6. The experiment in a line: Quantification of LacCer levels in the CNS (LC-MS/MS). Type of series: in vivo, mouse. Conditions: NOD EAE. How it is done:
Chemical standards of LacCer (d18:1/16:0) and LacCer (d18:1/18:0) were obtained from Avanti Polar Lipids. Quantification of LacCer (d18:1/16:0) and LacCer (d18:1/18:0) was achieved by LC-MS/MS analysis performed on an Agilent (Agilent Technologies, Santa Clara, Calif.) 6460 triple-quadrupole LC/MS/MS system. The fragments from the [M+H]^+ ions for LacCer and internal standard were subjected to collision induced dissociation and the two major types of fragment ions were monitored via electrospray ionization in the positive ion mode in multiple reaction monitoring (MRM) mode for each ion. These two MRM transitions corresponded to the loss of the neutral lactosyl moiety, and to the formation of the lactose ion. Specifically, the MRM transitions used for quantification for LacCer (d18:1/16:0) and LacCer(d18:1/18:0) were 862.5>[…] and 890.6>548.5, respectively. Secondary confirmatory MRM transitions for LacCer(d18:1/16:0) and LacCer(d18:1/18:0) of 862.5>264.3 and 890.6>264.3 were also monitored. Mass spectrometer parameter settings were gas temp (325° C.), gas flow (12 L/min), nebulizer (25 psi), sheath gas temp (400° C.), sheath gas flow (12 L/min), capillary voltage (4000v), and nozzle voltage (500v). Liquid chromatography conditions with an a Phenomenex Gemini C18 column 4.6×50 mm 5 μm particle size was used for separation. Chromatography method the following flow rate=0.4 mLs/min; solvent A=5 mM ammonium formate in 5% MeOH and 0.1% formic acid v/v/v; solvent B=80% 2-propanol, 15% methanol, 5% water and 0.1% formic acid (v/v/v/v). […] Standard curve mixture was analyzed at various concentrations between 0.10 nM to 3.3 μM in LacCer (d18:1/16:0) and an internal standard concentration of 1 μM. The lower limit of quantification was estimated at 1 nM and a R^2 of 0.9969 was obtained using linear regression analysis. […]
The brain tissue was weighed and homogenized using a Dounce homogenizer (VWR), in the extraction solvent using a Bligh and Dyer type liquid-liquid extraction. […] The dried sample was reconstituted in 100 μl of 2:1 chloroform-methanol, and analyzed using the HPLC-MS.

The next series deals with primary mouse microglia. Nature of the series: Viability assay, microglia. Type of series: cell-based. The settings on record: absence of astrocytes, LPS/IFNγ. From the text:
FIGS. 5a-m. B4GALT6 in astrocytes regulates the activation of microglia and CNS-infiltrating monocytes. (a) Heatmap depicting mRNA expression, as determined by nCounter Nanostring analysis, in microglia from naïve or EAE NOD mice treated with PDMP or vehicle. Representative data of three independent experiments. Statistical analysis by Student's t-test. (b) qPCR analysis of ccl5, il1b, opn, nos2, cd40, and H2-Aa gene expression relative to Gapdh. (c, d) Mean normalized expression of genes associated with M1- or M2-phenotype in microglia (Table 3) (c) and Ly6C^high monocytes (d). Statistical analysis by Student's t-test. (e-h) primary microglia were pre-treated with PDMP, LacCer, or vehicle, followed by activation with LPS/IFNγ for 6 h or left un-treated (control) as in (FIG. 3a). mRNA expression was determined by nCounter Nanostring analysis (e, g), and microglial viability was determined (f, h). Representative data of five independent experiments. […] RNA was harvested from microglia treated in the absence [MG (pure)] or presence [MG (mixed)] of astrocytes and gene expression was analyzed by qPCR for the expression ccl2, ccl5 and nos2 relative to gapdh. […] Microglia were isolated as in (i), and microglial-nos2 expression was determined by qRT relative to gapdh and presented as in (i). […]

Consider `CCCCCCCCCC(=O)N[C@H](CN1CCOCC1)[C@H](O)c1ccccc1` [PDMP, D-threo-1-phenyl-2-decanoylamino-3-morpholino-1-propanol], for which the “CNS LacCer levels” value in the series on B4GALT5/6 (20 mg/kg twice a day from day 40) was “significant decrease”. In addition, in the series with primary mouse microglia, the “viability of cultured primary mouse microglia” value is “neither the viability nor the response of cultured primary mouse microglia to LPS/IFNγ was affected”.
For the compound lactosylceramide [LacCer], the “viability of cultured primary mouse microglia” value in the series on primary mouse microglia was “neither the viability nor the response of cultured primary mouse microglia to LPS/IFNγ was affected”.
Take “shB4galt6: lentivirus-delivered shRNA against b4galt6 (TRCN0000334278; SEQ ID NO:3) (guide CGATGGACTGAACAATTTATTCTCGAGAATAAATTGTTCAGTCCACG)”: the “CNS LacCer levels” value in the series with B4GALT5/6 (i.c.v. 1×10^7 IU lentivirus at day 35, 10 days after injection) is listed as “significant decrease”.
